# Experimental data: PubChem BioAssay (NCI)
#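 In this assay, cells in 96-well plates receive the compound at five concentrations for 48 hours. Endpoints are linearly interpolated between the surrounding concentrations. TGI: concentration producing complete growth inhibition.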
# Legend:
# Assay in all cases: growth of human tumour cells (NCI), 48 h
# SF-268 CNS = tested on: SF-268 CNS
# CCRF-CEM leukemia = tested on: CCRF-CEM leukemia
# SNB-75 CNS = tested on: SNB-75 CNS
# SK-OV-3 ovarian = tested on: SK-OV-3 ovarian
# SF-539 CNS = tested on: SF-539 CNS
# UACC-62 melanoma = tested on: UACC-62 melanoma
# HT29 colon = tested on: HT29 colon
# RXF 393 renal = tested on: RXF 393 renal
# ACHN renal = tested on: ACHN renal
# BT-549 breast = tested on: BT-549 breast
# MDA-N = tested on: MDA-N
# MCF7 breast = tested on: MCF7 breast
# DU-145 prostate = tested on: DU-145 prostate
# 786-0 renal = tested on: 786-0 renal
# M14 melanoma = tested on: M14 melanoma
# A549 NSCLC = tested on: A549 NSCLC
# MDA-MB-435 = tested on: MDA-MB-435
# SR leukemia = tested on: SR leukemia
Compound,TGI (SF-268 CNS) [µM],TGI (CCRF-CEM leukemia) [µM],TGI (SNB-75 CNS) [µM],TGI (SK-OV-3 ovarian) [µM],TGI (SF-539 CNS) [µM],TGI (UACC-62 melanoma) [µM],TGI (HT29 colon) [µM],TGI (RXF 393 renal) [µM],TGI (ACHN renal) [µM],TGI (BT-549 breast) [µM],TGI (MDA-N) [µM],TGI (MCF7 breast) [µM],TGI (DU-145 prostate) [µM],TGI (786-0 renal) [µM],TGI (M14 melanoma) [µM],TGI (A549 NSCLC) [µM],TGI (MDA-MB-435) [µM],TGI (SR leukemia) [µM]
C=CCNC1=C2C[C@@H](C)C[C@@H](OC)[C@H](OC(=O)CN)[C@H](C)/C=C(\C)[C@@H](OC(N)=O)[C@H](OC)/C=C\C=C(/C)C(=O)NC(=CC1=O)C2=O,29.7,> 29.8,9.59,12.5,15.9,12,17.6,17,19.6,28.3,13,12.8,> 40.9,20.7,22.3,21,14.3,> 40
COc1cc(N(CCC#N)CCC#N)ccc1/C(N=Nc1ccccc1)=N/NC(=O)c1cc(Br)ccc1O,> 100,33.2,> 100,> 100,83.7,46.7,71.4,70.9,81.6,65.2,> 100,55.5,74.3,> 100,> 100,> 100,> 100,43.7
CN(C)C(=O)Oc1ccc(-c2cn3cc(NC(=O)c4ccccc4)ccc3n2)cc1,> 100,> 100,> 100,> 100,> 100,> 100,> 100,> 100,> 100,> 100,> 100,> 100,> 100,> 100,> 100,> 100,> 100,> 100
COc1cc2c(cc1OCc1ccccc1)NC(=S)[C@@H]1CCCN1C2=S,> 100,> 100,90.3,> 100,> 100,> 100,> 100,> 100,> 100,> 100,> 100,> 100,> 100,> 100,> 100,> 100,> 100,> 100
N#CCCN(CCN(C(=O)Nc1ccccc1)c1ccccc1)C(=O)Nc1ccccc1,> 100,47.7,> 100,> 100,> 100,> 100,> 100,> 90.1,> 100,> 100,> 100,> 100,> 100,> 100,> 100,> 100,> 100,> 100
COc1cc2c(cc1O)[C@@H]1Cc3c(cc(OC)c(OC)c3Oc3cc4c(cc3OC)CCN(C)[C@@H]4Cc3ccc(O)cc3)[C@H](C2)N1C,> 100,> 72.1,> 80,> 100,65.2,> 100,> 100,37.4,> 100,96.9,38.3,> 100,> 100,> 100,33.9,> 100,40.8,19.3
O=C(NC(Nc1ccc(F)c(Cl)c1)(C(F)(F)F)C(F)(F)F)OCc1ccccc1,> 100,> 100,> 100,74.1,42.6,> 100,> 100,> 100,> 100,33.6,56.2,38.1,> 100,39.5,> 100,> 100,> 100,32.7
O=C(c1ccccc1)c1sc2c(=O)c(C(=O)c3ccccc3)c(C(=O)c3ccccc3)sc2c(=O)c1C(=O)c1ccccc1,> 100,> 100,68,> 100,51.1,> 100,> 100,72.3,> 100,> 100,> 100,> 100,> 100,> 100,> 100,> 100,70.9,> 100
NC(N)=NCCCC(NC(=O)OCCCCCCn1ccc(N)nc1=O)C(=O)O (stereo not given),> 100,> 100,> 100,> 100,> 100,> 100,> 100,> 100,> 100,> 100,> 100,> 100,> 100,> 100,> 100,> 100,> 100,> 100
Cc1cc(NS(=O)(=O)c2ccc(Nc3c4ccccc4nc4ccc(C(=O)Nc5ccc(S(N)(=O)=O)cc5)cc34)cc2)no1,> 100,> 100,> 100,> 100,> 100,> 100,> 100,> 100,> 100,> 100,> 100,> 100,> 100,> 100,> 100,> 100,> 100,> 100
